Experimental data taken from patent EP2818471A1, “Nitrogen bicyclic compounds as inhibitors for Scyl1 and Grk5” (Max-Planck-Gesellschaft zur Förderung der Wissenschaften …, priority 2013, dated 2014).

Tested on: beta-TC6 cells
Experiment: Insulin HTRF assay, relative activity Ar normalized to sunitinib
Type: cell-based
Conditions: Mus musculus, normalized to positive control sunitinib (5 µM = 100%), Table 10
Summary of the method: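 beta-TC6 cells (15k/well) were seeded for 24 or 48 h, washed and exposed to test compound or sunitinib (5 µM f.c.) in induction buffer with 0.5% DMSO for 2, 3 or 4 h at 37°C. Secreted insulin in the supernatant was measured by two-antibody HTRF after 120 min at RT. Ar = (V − 0% control)/(100% control − 0% control) × 100.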

Question: For `CN(C)c1cccc(-c2cnc3cnc(-c4ccsc4)cn23)c1` [compound 343, N,N-dimethyl-3-[6-(3-thienyl)imidazo[1,2-a]pyrazin-3-yl]aniline], which Emax is on record?
Answer: 50 to 100%

Question: `CN(C)/C(=C1\N=C(c2ccccc2)OC1=O)c1cnc2cccnn12` [compound 162, (4Z)-4-[dimethylamino(imidazo[1,2-b]pyridazin-3-yl)methylene]-2-phenyl-oxazol-5-one] was tested. Which Emax did it give?
Answer: 10 to 20%

Question: For `COc1ccc(-c2cnc3ccc(NCC4CC4)nn23)cn1` [compound 51, N-(cyclopropylmethyl)-3-(6-methoxy-3-pyridyl)imidazo[1,2-b]pyridazin-6-amine], which Emax is on record?
Answer: 10 to 20%

Question: `Clc1cccc(-c2nnc3ccc(-c4cncnc4)cn23)c1` [compound 203, 3-(3-chlorophenyl)-6-pyrimidin-5-yl-[1,2,4]triazolo[4,3-a]pyridine] was tested. Which Emax did it give?
Answer: 20 to 50%

Question: Which Emax does the source give for `c1csc(-c2cnc3cnc(-c4ccncc4)cn23)c1` [compound 414, 6-(4-pyridyl)-3-(2-thienyl)imidazo[1,2-a]pyrazine] here?
Answer: 20 to 50%

Question: How did the Emax turn out when `CN1CCN(C(=O)c2cccc(-c3ccc4nnc(-c5ccc6nccnc6c5)n4c3)c2)CC1` [compound 243, (4-methylpiperazin-1-yl)-[3-(3-quinoxalin-6-yl-[1,2,4]triazolo[4,3-a]pyridin-6-yl)phenyl]methanone] was run?
Answer: 20 to 50%

Question: For `COc1cc(-c2cnc3cnc(-c4ccc(N5CCN(C)CC5)nc4)cn23)cc(OC)c1OC` [compound 340, 6-[6-(4-methylpiperazin-1-yl)-3-pyridyl]-3-(3,4,5-trimethoxyphenyl)imidazo[1,2-a]pyrazine], which Emax is on record?
Answer: 20 to 50%

Question: For `CN1CCN(C(=O)c2cccc(-c3cnc4cnc(-c5ccc6c(ccn6C)c5)cn34)c2)CC1` [compound 358, [3-[6-(1-methylindol-5-yl)imidazo[1,2-a]pyrazin-3-yl]phenyl]-(4-methylpiperazin-1-yl)methanone], which Emax is on record?
Answer: 20 to 50%

Question: Which Emax does the source give for `Cc1cccc(-c2cn3c(-c4ccc(CCC(=O)O)cc4)cnc3cn2)c1C` [compound 334, 3-[4-[6-(2,3-dimethylphenyl)imidazo[1,2-a]pyrazin-3-yl]phenyl]propanoic acid] here?
Answer: 50 to 100%

Question: Which Emax does the source give for `COc1cc(-c2nnc3ccc(-c4ccccc4C)cn23)ccc1O` [compound 218, 2-methoxy-4-[6-(o-tolyl)-[1,2,4]triazolo[4,3-a]pyridin-3-yl]phenol] here?
Answer: 50 to 100%

Question: For `FC(F)(F)Oc1cccc(-c2ccc3nnc(-c4ccncc4)n3c2)c1` [compound 178, 3-(4-pyridyl)-6-[3-(trifluoromethoxy)phenyl]-[1,2,4]triazolo[4,3-a]pyridine], which Emax is on record?
Answer: 20 to 50%

Question: Which Emax does the source give for `CN1CCN(c2ccc(-c3cn4c(-c5ccc(C(=O)N(C)C)cc5)cnc4cn3)cn2)CC1` [compound 429, N,N-dimethyl-4-[6-[6-(4-methylpiperazin-1-yl)-3-pyridyl]imidazo[1,2-a]pyrazin-3-yl]benzamide] here?
Answer: 20 to 50%

Question: How did the Emax turn out when `CN(C)c1ccc(-c2ccc3nnc(-c4cccnc4)n3c2)cc1` [compound 182, N,N-dimethyl-4-[3-(3-pyridyl)-[1,2,4]triazolo[4,3-a]pyridin-6-yl]aniline] was run?
Answer: 50 to 100%

Question: With `Cc1ccc(CNc2ccc3ncc(-c4ccc(C(=O)NCCN(C)C)cc4)n3n2)c(C)c1` [compound 54, N-(2-dimethylaminoethyl)-4-[6-[(2,4-dimethylphenyl)methylamino]imidazo[1,2-b]pyridazin-3-yl]benzamide] as the compound, how does the Emax read?
Answer: 20 to 50%

Question: For `Cn1ccc2cc(-c3cnc4cnc(-c5cccc(C(N)=O)c5)cn34)ccc21` [compound 401, 3-[3-(1-methylindol-5-yl)imidazo[1,2-a]pyrazin-6-yl]benzamide], which Emax is on record?
Answer: 20 to 50%

Question: How did the Emax turn out when `CNC(=O)c1cccc(-c2ccc3nnc(-c4ccc5c(c4)OCO5)n3c2)c1` [compound 175, 3-[3-(1,3-benzodioxol-5-yl)-[1,2,4]triazolo[4,3-a]pyridin-6-yl]-N-methyl-benzamide] was run?
Answer: 20 to 50%

Question: `Oc1cccc(-c2cnc3cnc(-c4ccc(Cl)cc4)cn23)c1` [compound 365, 3-[6-(4-chlorophenyl)imidazo[1,2-a]pyrazin-3-yl]phenol] was tested. Which Emax did it give?
Answer: 20 to 50%

Question: Which Emax does the source give for `COc1ccc(-c2cnc3cnc(-c4cccc(C(N)=O)c4)cn23)cn1` [compound 383, 3-[3-(6-methoxy-3-pyridyl)imidazo[1,2-a]pyrazin-6-yl]benzamide] here?
Answer: 20 to 50%

Question: With `CN1CCN(C(=O)c2cccc(-c3cnc4cnc(-c5ccc6c(c5)OCO6)cn34)c2)CC1` [compound 355, [3-[6-(1,3-benzodioxol-5-yl)imidazo[1,2-a]pyrazin-3-yl]phenyl]-(4-methylpiperazin-1-yl)methanone] as the compound, how does the Emax read?
Answer: 20 to 50%

Question: Which Emax does the source give for `Cn1cc(-c2cn3c(-c4ccc(O)cc4)cnc3cn2)cn1` [compound 327, 4-[6-(1-methylpyrazol-4-yl)imidazo[1,2-a]pyrazin-3-yl]phenol] here?
Answer: 20 to 50%

Question: How did the Emax turn out when `Fc1cccc(-c2cnc3cnc(-c4ccccc4)cn23)c1` [compound 385, 3-(3-fluorophenyl)-6-phenyl-imidazo[1,2-a]pyrazine] was run?
Answer: 20 to 50%

Question: For `NC(=O)c1cccc(-c2ccc3nnc(-c4cscn4)n3c2)c1` [compound 230, 3-(3-thiazol-4-yl-[1,2,4]triazolo[4,3-a]pyridin-6-yl)benzamide], which Emax is on record?
Answer: 20 to 50%

Question: With `Cc1ccccc1-c1cnc2cnc(-c3cccs3)cn12` [compound 405, 3-(o-tolyl)-6-(2-thienyl)imidazo[1,2-a]pyrazine] as the compound, how does the Emax read?
Answer: 10 to 20%

Question: With `COc1cc(-c2nnc3ccc(-c4cccc(F)c4)cn23)ccc1O` [compound 217, 4-[6-(3-fluorophenyl)-[1,2,4]triazolo[4,3-a]pyridin-3-yl]-2-methoxy-phenol] as the compound, how does the Emax read?
Answer: 50 to 100%

Question: `Clc1ccccc1-c1ccc2nnc(-c3cccnc3)n2c1` [compound 184, 6-(2-chlorophenyl)-3-(3-pyridyl)-[1,2,4]triazolo[4,3-a]pyridine] was tested. Which Emax did it give?
Answer: 50 to 100%

Question: Which Emax does the source give for `Oc1cccc(-c2nnc3ccc(-c4cccc5ncccc45)cn23)c1` [compound 209, 3-[6-(5-quinolyl)-[1,2,4]triazolo[4,3-a]pyridin-3-yl]phenol] here?
Answer: 20 to 50%

Question: `COc1cc(-c2ccc3nnc(-c4cccc(C(F)(F)F)c4)n3c2)cc(OC)c1OC` [compound 210, 3-[3-(trifluoromethyl)phenyl]-6-(3,4,5-trimethoxyphenyl)-[1,2,4]triazolo[4,3-a]pyridine] was tested. Which Emax did it give?
Answer: 50 to 100%

Question: For `CC(=O)Nc1cccc(-c2ccc3nnc(-c4ccc5nccnc5c4)n3c2)c1` [compound 241, N-[3-(3-quinoxalin-6-yl-[1,2,4]triazolo[4,3-a]pyridin-6-yl)phenyl]acetamide], which Emax is on record?
Answer: 50 to 100%

Question: `c1ccc(Oc2cccc(-c3ccc4nnc(-c5ccncc5)n4c3)c2)cc1` [compound 181, 6-(3-phenoxyphenyl)-3-(4-pyridyl)-[1,2,4]triazolo[4,3-a]pyridine] was tested. Which Emax did it give?
Answer: 20 to 50%

Question: `O=C(Nc1cnc2cnc(-c3cnn(Cc4ccccc4)c3)cn12)C1CCC1` [compound 273, N-[6-(1-benzylpyrazol-4-yl)imidazo[1,2-a]pyrazin-3-yl]cyclobutanecarboxamide] was tested. Which Emax did it give?
Answer: 20 to 50%

Question: `Clc1ccccc1-c1ccc2ncc(-c3cccs3)n2n1` [compound 158, 6-(2-chlorophenyl)-3-(2-thienyl)imidazo[1,2-b]pyridazine] was tested. Which Emax did it give?
Answer: 10 to 20%

Question: How did the Emax turn out when `OCc1cccc(-c2cnc3ccc(-c4cccc(Oc5ccccc5)c4)nn23)c1` [compound 133, [3-[6-(3-phenoxyphenyl)imidazo[1,2-b]pyridazin-3-yl]phenyl]methanol] was run?
Answer: 20 to 50%

Question: With `COc1ccc(-c2ccc3nnc(-c4ccc(OCCCN(C)C)cc4)n3c2)cc1OC` [compound 236, 3-[4-[6-(3,4-dimethoxyphenyl)-[1,2,4]triazolo[4,3-a]pyridin-3-yl]phenoxy]-N,N-dimethyl-propan-1-amine] as the compound, how does the Emax read?
Answer: 50 to 100%

Question: With `O=C(NCCO)c1ccc(-c2cn3c(-c4cccs4)cnc3cn2)cc1` [compound 423, N-(2-hydroxyethyl)-4-[3-(2-thienyl)imidazo[1,2-a]pyrazin-6-yl]benzamide] as the compound, how does the Emax read?
Answer: 10 to 20%

Question: Which Emax does the source give for `Oc1cccc(-c2cnc3ccc(-c4ccc(F)cc4)nn23)c1` [compound 127, 3-[6-(4-fluorophenyl)imidazo[1,2-b]pyridazin-3-yl]phenol] here?
Answer: 20 to 50%

Question: `CN(C)C(=O)c1ccc(-c2cnc3cnc(-c4ccccc4Oc4ccccc4)cn23)cc1` [compound 430, N,N-dimethyl-4-[6-(2-phenoxyphenyl)imidazo[1,2-a]pyrazin-3-yl]benzamide] was tested. Which Emax did it give?
Answer: 20 to 50%

Question: Which Emax does the source give for `Nc1ccc(-c2cn3c(-c4cccs4)cnc3cn2)cn1` [compound 427, 5-[3-(2-thienyl)imidazo[1,2-a]pyrazin-6-yl]pyridin-2-amine] here?
Answer: 20 to 50%

Question: Which Emax does the source give for `Oc1cccc(-c2cnc3cnc(/C=C/c4ccccc4)cn23)c1` [compound 366, 3-[6-[(E)-styryl]imidazo[1,2-a]pyrazin-3-yl]phenol] here?
Answer: 20 to 50%

Question: With `OCc1cccc(-c2cnc3cnc(-c4cccs4)cn23)c1` [compound 379, [3-[6-(2-thienyl)imidazo[1,2-a]pyrazin-3-yl]phenyl]methanol] as the compound, how does the Emax read?
Answer: 20 to 50%

Question: With `CN(C)c1ccc(-c2cnc3cnc(-c4ccc(C(=O)NCCO)cc4)cn23)cc1` [compound 290, 4-[3-(4-dimethylaminophenyl)imidazo[1,2-a]pyrazin-6-yl]-N-(2-hydroxyethyl)benzamide] as the compound, how does the Emax read?
Answer: 50 to 100%

Question: With `c1cc2c(cc1CNc1ccc3ncc(-c4ccc(N5CCOCC5)cc4)n3n1)OCO2` [compound 26, N-(1,3-benzodioxol-5-ylmethyl)-3-(4-morpholinophenyl)imidazo[1,2-b]pyridazin-6-amine] as the compound, how does the Emax read?
Answer: 20 to 50%

Question: With `CN1CCN(C(=O)c2cccc(-c3cnc4cnc(-c5ccc(CNc6ccccc6)cc5)cn34)c2)CC1` [compound 359, [3-[6-[4-(anilinomethyl)phenyl]imidazo[1,2-a]pyrazin-3-yl]phenyl]-(4-methylpiperazin-1-yl)methanone] as the compound, how does the Emax read?
Answer: 10 to 20%

Question: For `COc1ccc(-c2ccc3ncc(-c4cccc(Cl)c4)n3n2)cc1OC` [compound 124, 3-(3-chlorophenyl)-6-(3,4-dimethoxyphenyl)imidazo[1,2-b]pyridazine], which Emax is on record?
Answer: 20 to 50%

Question: For `C(=C\c1cnc2cccnn12)/c1ccccc1` [compound 74, 3-[(E)-styryl]imidazo[1,2-b]pyridazine], which Emax is on record?
Answer: 20 to 50%
